# Measurements taken from US6939863B2, “Prevention of atherosclerosis and restenosis” (priority 2002, dated 2005).
# Entries after “also recorded” stand apart in the source; their conditions may differ.
# How the values were obtained:
# in vivo = conditions: male, New Zealand White, rabbit, 0.1 % in the drinking water, Serum PTU at sacrifice, 0.1% propylthiouracil in drinking water
# Description: Serum propylthiouracil levels were measured by HPLC with mephenoxalone (Tung Yang Chemical Industries, Taiwan) as an internal standard. One hundred microliters of serum was placed into a tube containing 25 microliters of mephenoxalone (Tung Yang Chemical Industries, Taiwan) at 1 milligram per milliliter. All tubes were treated with 25 microliters of 1 molar K2HPO4 and mixed well by vortexing. The contents of each tube were extracted with 2 milliliters of methyl tert-butyl ether (MTBE) (Sigma, St. Louis, Mo.). Tube contents were mixed and centrifuged for 10 minutes at 3000 rpm at 25° C. The supernatant was transferred to a glass tube, dried under nitrogen gas, and reconstituted with 300 microliters of mobile phase. HPLC was performed by using a Hitachi HPLC system (Hitachi, Japan). An ODS column (Cosmosil 5C18-MS, 4.6 millimeters×250 millimeters, 5 micrometers, Nacalai Tesque, Japan) was used in this chromatographic separation, as well as an ultraviolet detector detecting at 275 nanometers. The mobile phase (acetonitrile/water/phosphoric acid, 40/60/0.5, vol/vol/vol) was degassed and filtered before use. The column flow rate was 1.0 milliliter per minute and column temperature was maintained at 40° C.
# [1] = system: aortas and femoral arteries of cholesterol-fed rabbits; test: Atherosclerotic lesions in rabbits on 2% cholesterol diet (Sudan III, intima/media morphometry, immunohistochemistry); assay type: in vivo, New Zealand White rabbits; conditions: for Extent of sudanophilic areas / atherosclerosis in the aorta: 0.1% propylthiouracil in drinking water, 12 weeks; for Alpha-smooth muscle actin-positive cells (VSMCs) in atheromas / VSMC/macrophage ratio in atherosclerotic lesions: CHO+PTU versus CHO alone
# Description: At the end of 12 weeks of study, the rabbits were sacrificed. The aortas (from the ascending aorta to the iliac bifurcation) and femoral arteries were removed, rinsed with phosphate-buffered saline (PBS) and stained with Sudan III, or fixed with 4% paraformaldehyde and paraffin-embedded for hematoxylin-eosin staining or immunohistochemical analysis.
# For morphometric studies, up to ten cross sections ([…] and 2 millimeters apart from each other) were prepared from each paraffin-embedded segment of the aorta and femoral arteries. The specimens were stained with hematoxylin and eosin. For each cross section of an arterial specimen, the intimal and medial areas were measured.
# For immunohistochemical studies, the arterial sections were deparaffinized, rehydrated and blocked in PBS containing 1% bovine serum albumin and 1% goat serum at room temperature for 30 minutes. The sections were then incubated with mouse monoclonal antibodies against smooth muscle cell alpha-actin (clone 1A4, catalogue number M0851, DAKO Corp., Carpenteria, Calif.) and mouse monoclonal antibodies against rabbit macrophages (clone RAM 11, catalogue number M0633, DAKO Corp., Carpenteria, Calif.) at 4° C. overnight. Subsequently, immunohistochemistry was performed using a commercially available peroxidase-labelled streptavidin-biotin kit (DAKO LSAB peroxidase, catalogue number K0675, DAKO, Carpenteria, Calif.) and 3,3′-diaminobenzidine tetrahydrochloride (DAKO liquid DAB+ substrate-chromagen system, catalogue number K3468, DAKO, Carpenteria, Calif.) according to the procedures provide by manufacturer.
compound,measurement,setting,value
"CCCc1cc(=O)[nH]c(=S)[nH]1 [Propylthiouracil, 6-n-propyl-2-thiouracil]",concentration at 12 weeks,in vivo; 2% cholesterol diet,1330 ± 1200 ng/mL
same,concentration at 12 weeks,in vivo; normal chow,1570 ± 700 ng/mL
same,Extent of sudanophilic areas / atherosclerosis in the aorta,[1]; 2% cholesterol diet,markedly less; also recorded: significantly decreased
same,Extent of sudanophilic areas / atherosclerosis in the aorta,"[1]; 2% cholesterol diet, listed as PTU",markedly less
same,Alpha-smooth muscle actin-positive cells (VSMCs) in atheromas,[1],significantly fewer
same,VSMC/macrophage ratio in atherosclerotic lesions,[1],reduce
same,Alpha-smooth muscle actin-positive cells (VSMCs) in atheromas,[1]; listed as PTU,markedly fewer
same,VSMC/macrophage ratio in atherosclerotic lesions,[1]; listed as PTU,decreased
same,Intima/media area ratio,"[1]; ascending aorta, aortic arch and femoral arteries, 2% cholesterol diet",deceased significantly
same,Visible atherosclerotic lesion in aortas and arteries,"[1]; normal chow, Groups 2 and 3, data not shown",no visible atherosclerotic lesion
same,TUNEL-positive cells in aortas of rabbits,[1]; propylthiouracil and cholesterol/propylthiouracil treatment groups,absent
